Results as given in ChEMBL document CHEMBL1201862, “PubChem BioAssay data set” (2004).
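Dose response: 5 concentrations. Exposure: 48 h. Format: 96-well plates. Endpoint: linear interpolation; highest concentration if not reached. GI50: concentration for 50% inhibition of growth.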 Calls of active or inactive are those of the source. Cut-off read from the data, not from the text of the source: active = GI50 up to about 1.1 µM and inactive = higher.

How the values were obtained:
Assay in all cases: NCI anticancer screen, dose series, 48 h
SK-OV-3 = tested on: SK-OV-3
TK-10 = tested on: TK-10
SR = tested on: SR
RXF 393 = tested on: RXF 393
SNB-78 = tested on: SNB-78
OVCAR-4 = tested on: OVCAR-4
OVCAR-5 = tested on: OVCAR-5
OVCAR-8 = tested on: OVCAR-8
K562 = tested on: K562
OVCAR-3 = tested on: OVCAR-3
LOX IMVI = tested on: LOX IMVI
UACC-257 = tested on: UACC-257
HT-29 = tested on: HT-29
M19-MEL = tested on: M19-MEL
SK-MEL-2 = tested on: SK-MEL-2
A549 = tested on: A549

Measured: GI50

Cc1cc2nc3c(C(OC4OC(CO)C(O)C(O)C4O)C(O)CO)nn(-c4ccccc4)c3nc2cc1C (stereo unspecified)
inactive: SK-OV-3 > 100 µM | TK-10 > 100 µM | SR > 100 µM | RXF 393 > 100 µM | SNB-78 > 100 µM | OVCAR-4 > 100 µM | OVCAR-5 > 100 µM | OVCAR-8 > 100 µM | K562 > 100 µM | OVCAR-3 > 100 µM | LOX IMVI > 100 µM | UACC-257 > 100 µM | HT-29 > 100 µM

CCC(C)(C)NS(=O)(=O)c1ccccc1
inactive: SK-OV-3 > 100 µM | TK-10 > 100 µM | RXF 393 > 100 µM | SNB-78 > 100 µM | OVCAR-4 > 100 µM | OVCAR-5 > 100 µM | OVCAR-8 > 100 µM | M19-MEL > 100 µM | K562 > 100 µM | SK-MEL-2 > 100 µM | A549 > 100 µM | OVCAR-3 > 100 µM | UACC-257 > 100 µM | HT-29 > 100 µM

COc1ccc(NC(=O)C(=O)C2NC(=S)NC2=O)c(OC)c1 (stereo unspecified)
inactive: SK-OV-3 > 100 µM | TK-10 > 100 µM | RXF 393 > 100 µM | SNB-78 > 100 µM | OVCAR-4 > 100 µM | OVCAR-8 > 100 µM | M19-MEL > 100 µM | K562 > 100 µM | SK-MEL-2 > 100 µM | A549 > 100 µM | OVCAR-3 > 100 µM | LOX IMVI > 100 µM | UACC-257 > 100 µM | HT-29 > 100 µM

CC(C)CCC[C@@H](C)C1CCC2[C@@H]3CC=C4C[C@@H](C(=O)NCCN(C)C)CC[C@]4(C)C3CC[C@@]21C (stereo partly specified)
inactive: SK-OV-3 > 100 µM | TK-10 23.7 µM | RXF 393 > 100 µM | SNB-78 > 100 µM | OVCAR-4 30.4 µM | OVCAR-5 > 100 µM | OVCAR-8 33.1 µM | M19-MEL 19.7 µM | K562 33 µM | SK-MEL-2 11.5 µM | A549 23.1 µM | OVCAR-3 31.4 µM | LOX IMVI 51.4 µM | UACC-257 22.4 µM | HT-29 34.2 µM

CSC1(C)CC2C(CC1N1CCOCC1)C2(C)C (stereo unspecified)
inactive: SK-OV-3 > 100 µM | TK-10 > 100 µM | SNB-78 > 100 µM | OVCAR-4 > 100 µM | OVCAR-5 > 100 µM | OVCAR-8 > 100 µM | M19-MEL > 100 µM | K562 > 100 µM | SK-MEL-2 > 100 µM | A549 > 100 µM | OVCAR-3 > 100 µM | UACC-257 > 100 µM | HT-29 > 100 µM

CC(=O)OC1CC2C(C)(C)C(=O)C=C[C@]2(C)C2CCC3(C)C(c4ccoc4)C(=O)[C@H]4O[C@]43[C@]12C (stereo partly specified)
inactive: SK-OV-3 > 100 µM | TK-10 31.6 µM | RXF 393 19.1 µM | SNB-78 57.8 µM | OVCAR-4 22.3 µM | OVCAR-5 26.7 µM | OVCAR-8 19.4 µM | M19-MEL 20.4 µM | K562 15.6 µM | SK-MEL-2 20.8 µM | A549 > 10 µM | LOX IMVI 20 µM

N#C/C(c1nc2ccccc2[nH]1)=c1\s/c(=C/c2ccccc2)c(=O)n1-c1ccccc1
inactive: SK-OV-3 > 100 µM | TK-10 > 100 µM | SR > 100 µM | OVCAR-4 > 100 µM | OVCAR-5 > 100 µM | OVCAR-8 > 100 µM | M19-MEL > 100 µM | K562 > 100 µM | SK-MEL-2 > 100 µM | A549 > 100 µM | OVCAR-3 > 100 µM | LOX IMVI > 100 µM | UACC-257 > 100 µM

O=C(Nc1nc2ccccc2n1Cc1ccc(Cl)cc1)NC12CC3CC(CC(C3)C1)C2
inactive: SK-OV-3 16.2 µM | TK-10 32.5 µM | SR 27.9 µM | RXF 393 20.5 µM | OVCAR-4 8.99 µM | OVCAR-5 91.2 µM | M19-MEL 39.4 µM | K562 32.3 µM | SK-MEL-2 26.9 µM | A549 21.1 µM | OVCAR-3 22.6 µM | LOX IMVI 34.1 µM | UACC-257 28.2 µM | HT-29 74.3 µM

O=c1c(O)cccn1C1OC(CO)C(O)C1O (stereo unspecified)
inactive: SK-OV-3 > 100 µM | TK-10 > 100 µM | RXF 393 > 100 µM | SNB-78 > 100 µM | OVCAR-4 > 100 µM | OVCAR-5 > 100 µM | OVCAR-8 > 100 µM | K562 > 100 µM | SK-MEL-2 > 100 µM | A549 > 100 µM | LOX IMVI > 100 µM | UACC-257 > 100 µM | HT-29 > 100 µM
